Laboratory results from ChEMBL document CHEMBL4190183 (Medchemcomm, 2016).
The source made the active and inactive calls. The rule behind the calls is not given here.

molecular target: T1, DNA ligase 1 (Homo sapiens, UniProt P18858); test: Inhibition of human DNA ligase 1 expressed in Escherichia coli BL21(DE3)RP cells assessed as reduction in fluorescently labelled ds nicked DNA substrate ligation at 100 uM after 30 mins by urea gel based imaging method relative to control; conditions: not given
T1 sequence (P18858 whole entry): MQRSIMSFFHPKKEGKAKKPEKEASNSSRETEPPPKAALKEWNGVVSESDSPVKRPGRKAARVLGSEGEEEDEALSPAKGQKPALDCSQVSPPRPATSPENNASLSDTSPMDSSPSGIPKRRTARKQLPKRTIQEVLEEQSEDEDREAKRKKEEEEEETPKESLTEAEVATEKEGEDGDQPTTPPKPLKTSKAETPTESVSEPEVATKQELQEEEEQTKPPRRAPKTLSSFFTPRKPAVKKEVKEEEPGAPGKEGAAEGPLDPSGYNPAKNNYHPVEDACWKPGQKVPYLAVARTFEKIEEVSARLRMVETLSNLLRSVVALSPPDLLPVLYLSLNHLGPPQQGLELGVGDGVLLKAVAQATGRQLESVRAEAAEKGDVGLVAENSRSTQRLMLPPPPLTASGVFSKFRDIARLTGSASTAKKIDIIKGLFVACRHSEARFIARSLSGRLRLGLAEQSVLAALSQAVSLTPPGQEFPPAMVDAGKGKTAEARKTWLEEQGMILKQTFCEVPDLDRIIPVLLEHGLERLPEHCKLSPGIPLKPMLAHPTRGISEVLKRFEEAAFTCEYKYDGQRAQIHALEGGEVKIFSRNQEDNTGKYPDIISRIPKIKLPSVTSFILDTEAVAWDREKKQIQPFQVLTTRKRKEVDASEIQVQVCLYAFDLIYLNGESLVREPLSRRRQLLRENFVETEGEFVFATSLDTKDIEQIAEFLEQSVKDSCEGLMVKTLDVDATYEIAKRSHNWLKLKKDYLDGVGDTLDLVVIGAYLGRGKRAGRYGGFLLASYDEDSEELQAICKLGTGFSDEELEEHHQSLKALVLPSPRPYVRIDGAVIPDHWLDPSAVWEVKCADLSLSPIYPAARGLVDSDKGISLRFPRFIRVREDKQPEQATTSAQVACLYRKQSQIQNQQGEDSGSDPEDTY

Row | Compound | inhibition [%]
1 | CCOC(=O)C1=C(C)NC(=O)NC1c1cc(/C=N/NC(=O)Nc2ccc(F)cc2)c(O)c(C(C)(C)C)c1 (stereo not drawn) | 84.7
2 | CCOC(=O)C1=C(C)NC(=S)NC1c1cc(/C=N/NC(=S)Nc2ccc(C)cc2)c(O)c(C(C)(C)C)c1 (stereo not drawn) | 68.9
3 | CCOC(=O)C1=C(C)NC(=O)NC1c1cc(/C=N/NC(N)=O)c(O)c(C(C)(C)C)c1 (stereo not drawn) | 77.6
4 | CCOC(=O)C1=C(C)NC(=O)NC1c1cc(C)c(O)c(C=O)c1 (stereo not drawn) | 76.9
5 | CCOC(=O)C1=C(C)NC(=S)NC1c1cc(/C=N/NC(=O)Nc2ccc(Cl)cc2)c(O)c(C(C)(C)C)c1 (stereo not drawn) | 77.1
6 | CCOC(=O)C1=C(C)NC(=O)NC1c1cc(/C=N/NC(=O)Nc2ccc(Br)cc2)c(O)c(C(C)(C)C)c1 (stereo not drawn) | 84
7 | CCOC(=O)C1=C(C)NC(=O)NC1c1cc(C)c(O)c(/C=N/NC(N)=S)c1 (stereo not drawn) | 84.1
8 | CCOC(=O)C1=C(C)NC(=S)NC1c1cc(/C=N/NC(=S)Nc2ccc(Cl)cc2)c(O)c(C(C)(C)C)c1 (stereo not drawn) | 79.4
9 | CCOC(=O)C1=C(C)NC(=O)NC1c1cc(/C=N/NC(=S)Nc2ccc(Cl)cc2)c(O)c(C(C)(C)C)c1 (stereo not drawn) | 80.9

tested on: A549; test: Cytotoxicity against human A549 cells assessed as cell death at 10 uM after 48 hrs by MTT assay relative to control; format: functional; conditions: not given

Row | Compound | Activity [%]
10 | CCOC(=O)C1=C(C)NC(=O)NC1c1cc(/C=N/NC(=O)Nc2ccc(F)cc2)c(O)c(C(C)(C)C)c1 (stereo not drawn) | 39.3
11 | CCOC(=O)C1=C(C)NC(=S)NC1c1cc(/C=N/NC(=S)Nc2ccc(C)cc2)c(O)c(C(C)(C)C)c1 (stereo not drawn) | 9.3
12 | CCOC(=O)C1=C(C)NC(=O)NC1c1cc(/C=N/NC(N)=O)c(O)c(C(C)(C)C)c1 (stereo not drawn) | 9.1
13 | CCOC(=O)C1=C(C)NC(=O)NC1c1cc(C)c(O)c(C=O)c1 (stereo not drawn) | 34.7
14 | CCOC(=O)C1=C(C)NC(=S)NC1c1cc(/C=N/NC(=O)Nc2ccc(Cl)cc2)c(O)c(C(C)(C)C)c1 (stereo not drawn) | 54
15 | CCOC(=O)C1=C(C)NC(=O)NC1c1cc(/C=N/NC(=O)Nc2ccc(Br)cc2)c(O)c(C(C)(C)C)c1 (stereo not drawn) | 45.3
16 | CCOC(=O)C1=C(C)NC(=O)NC1c1cc(C)c(O)c(/C=N/NC(N)=S)c1 (stereo not drawn) | 4.7
17 | CCOC(=O)C1=C(C)NC(=S)NC1c1cc(/C=N/NC(=S)Nc2ccc(Cl)cc2)c(O)c(C(C)(C)C)c1 (stereo not drawn) | 24.5
18 | CCOC(=O)C1=C(C)NC(=O)NC1c1cc(/C=N/NC(=S)Nc2ccc(Cl)cc2)c(O)c(C(C)(C)C)c1 (stereo not drawn) | 53.3

tested on: DLD-1; test: Cytotoxicity against human DLD1 cells assessed as cell death at 10 uM after 48 hrs by MTT assay relative to control; format: functional; conditions: not given

Row | Compound | Activity [%]
19 | CCOC(=O)C1=C(C)NC(=O)NC1c1cc(/C=N/NC(=O)Nc2ccc(F)cc2)c(O)c(C(C)(C)C)c1 (stereo not drawn) | 19.1
20 | CCOC(=O)C1=C(C)NC(=S)NC1c1cc(/C=N/NC(=S)Nc2ccc(C)cc2)c(O)c(C(C)(C)C)c1 (stereo not drawn) | 45.7
21 | CCOC(=O)C1=C(C)NC(=O)NC1c1cc(/C=N/NC(N)=O)c(O)c(C(C)(C)C)c1 (stereo not drawn) | 19.9
22 | CCOC(=O)C1=C(C)NC(=O)NC1c1cc(C)c(O)c(C=O)c1 (stereo not drawn) | 14.7
23 | CCOC(=O)C1=C(C)NC(=S)NC1c1cc(/C=N/NC(=O)Nc2ccc(Cl)cc2)c(O)c(C(C)(C)C)c1 (stereo not drawn) | 17.1
24 | CCOC(=O)C1=C(C)NC(=O)NC1c1cc(/C=N/NC(=O)Nc2ccc(Br)cc2)c(O)c(C(C)(C)C)c1 (stereo not drawn) | 60.2
25 | CCOC(=O)C1=C(C)NC(=O)NC1c1cc(C)c(O)c(/C=N/NC(N)=S)c1 (stereo not drawn) | 6.2
26 | CCOC(=O)C1=C(C)NC(=S)NC1c1cc(/C=N/NC(=S)Nc2ccc(Cl)cc2)c(O)c(C(C)(C)C)c1 (stereo not drawn) | 15.5
27 | CCOC(=O)C1=C(C)NC(=O)NC1c1cc(/C=N/NC(=S)Nc2ccc(Cl)cc2)c(O)c(C(C)(C)C)c1 (stereo not drawn) | 43

molecular target: T1, DNA ligase 1; test: Residual activity of human DNA ligase 1 expressed in Escherichia coli BL21(DE3)RP cells assessed as DNA ligation at 100 uM using fluorescently labelled ds nicked DNA as substrate after 30 mins by urea gel based imaging method relative to control; conditions: not given

Row | Compound | ligation [%]
28 | CCOC(=O)C1=C(C)NC(=O)NC1c1cc(/C=N/NC(=O)Nc2ccc(F)cc2)c(O)c(C(C)(C)C)c1 (stereo not drawn) | 15.3
29 | CCOC(=O)C1=C(C)NC(=S)NC1c1cc(/C=N/NC(=S)Nc2ccc(C)cc2)c(O)c(C(C)(C)C)c1 (stereo not drawn) | 31.1
30 | CCOC(=O)C1=C(C)NC(=O)NC1c1cc(/C=N/NC(N)=O)c(O)c(C(C)(C)C)c1 (stereo not drawn) | 22.4
31 | CCOC(=O)C1=C(C)NC(=O)NC1c1cc(C)c(O)c(C=O)c1 (stereo not drawn) | 23.1
32 | CCOC(=O)C1=C(C)NC(=S)NC1c1cc(/C=N/NC(=O)Nc2ccc(Cl)cc2)c(O)c(C(C)(C)C)c1 (stereo not drawn) | 22.9
33 | CCOC(=O)C1=C(C)NC(=O)NC1c1cc(/C=N/NC(=O)Nc2ccc(Br)cc2)c(O)c(C(C)(C)C)c1 (stereo not drawn) | 16
34 | CCOC(=O)C1=C(C)NC(=O)NC1c1cc(C)c(O)c(/C=N/NC(N)=S)c1 (stereo not drawn) | 15.9
35 | CCOC(=O)C1=C(C)NC(=S)NC1c1cc(/C=N/NC(=S)Nc2ccc(Cl)cc2)c(O)c(C(C)(C)C)c1 (stereo not drawn) | 20.6
36 | CCOC(=O)C1=C(C)NC(=O)NC1c1cc(/C=N/NC(=S)Nc2ccc(Cl)cc2)c(O)c(C(C)(C)C)c1 (stereo not drawn) | 19.1

tested on: HEK293; test: Cytotoxicity against HEK293 cells assessed as cell death at 10 uM after 48 hrs by MTT assay relative to control; format: cell-based; conditions: human, hek293, 48 h

Row | Compound | Activity [%]
37 | CCOC(=O)C1=C(C)NC(=O)NC1c1cc(/C=N/NC(=O)Nc2ccc(F)cc2)c(O)c(C(C)(C)C)c1 (stereo not drawn) | 46.8
38 | CCOC(=O)C1=C(C)NC(=S)NC1c1cc(/C=N/NC(=S)Nc2ccc(C)cc2)c(O)c(C(C)(C)C)c1 (stereo not drawn) | 40.2
39 | CCOC(=O)C1=C(C)NC(=O)NC1c1cc(/C=N/NC(N)=O)c(O)c(C(C)(C)C)c1 (stereo not drawn) | 14
40 | CCOC(=O)C1=C(C)NC(=O)NC1c1cc(C)c(O)c(C=O)c1 (stereo not drawn) | 9.2
41 | CCOC(=O)C1=C(C)NC(=S)NC1c1cc(/C=N/NC(=O)Nc2ccc(Cl)cc2)c(O)c(C(C)(C)C)c1 (stereo not drawn) | 65.7
42 | CCOC(=O)C1=C(C)NC(=O)NC1c1cc(/C=N/NC(=O)Nc2ccc(Br)cc2)c(O)c(C(C)(C)C)c1 (stereo not drawn) | 35.3
43 | CCOC(=O)C1=C(C)NC(=O)NC1c1cc(C)c(O)c(/C=N/NC(N)=S)c1 (stereo not drawn) | 6.7
44 | CCOC(=O)C1=C(C)NC(=S)NC1c1cc(/C=N/NC(=S)Nc2ccc(Cl)cc2)c(O)c(C(C)(C)C)c1 (stereo not drawn) | 52.7
45 | CCOC(=O)C1=C(C)NC(=O)NC1c1cc(/C=N/NC(=S)Nc2ccc(Cl)cc2)c(O)c(C(C)(C)C)c1 (stereo not drawn) | 53.1

tested on: HepG2; test: Induction of cell death in human HepG2 cells at 0.625 uM after 48 hrs by MTT assay; format: functional, cell-based; conditions: not given

Row | Compound | Activity
46 | COc1cccc2c1C(=O)c1c(O)c3c(c(O)c1C2=O)C[C@@](O)(C(=O)CO)C[C@@H]3O[C@H]1C[C@H](N)[C@H](O)[C@H](C)O1 | Active

tested on: HepG2; test: Cytotoxicity against human HepG2 cells assessed as cell death at 10 uM after 48 hrs by MTT assay relative to control; format: functional; conditions: not given

Row | Compound | Activity [%]
47 | CCOC(=O)C1=C(C)NC(=O)NC1c1cc(/C=N/NC(=O)Nc2ccc(F)cc2)c(O)c(C(C)(C)C)c1 (stereo not drawn) | 37.1
48 | CCOC(=O)C1=C(C)NC(=S)NC1c1cc(/C=N/NC(=S)Nc2ccc(C)cc2)c(O)c(C(C)(C)C)c1 (stereo not drawn) | 23.5
49 | CCOC(=O)C1=C(C)NC(=O)NC1c1cc(/C=N/NC(N)=O)c(O)c(C(C)(C)C)c1 (stereo not drawn) | 0.7
50 | CCOC(=O)C1=C(C)NC(=O)NC1c1cc(C)c(O)c(C=O)c1 (stereo not drawn) | 18.3
51 | CCOC(=O)C1=C(C)NC(=S)NC1c1cc(/C=N/NC(=O)Nc2ccc(Cl)cc2)c(O)c(C(C)(C)C)c1 (stereo not drawn) | 81.3
52 | CCOC(=O)C1=C(C)NC(=O)NC1c1cc(/C=N/NC(=O)Nc2ccc(Br)cc2)c(O)c(C(C)(C)C)c1 (stereo not drawn) | 65.3
53 | CCOC(=O)C1=C(C)NC(=O)NC1c1cc(C)c(O)c(/C=N/NC(N)=S)c1 (stereo not drawn) | 23.3
54 | CCOC(=O)C1=C(C)NC(=S)NC1c1cc(/C=N/NC(=S)Nc2ccc(Cl)cc2)c(O)c(C(C)(C)C)c1 (stereo not drawn) | 28.9
55 | CCOC(=O)C1=C(C)NC(=O)NC1c1cc(/C=N/NC(=S)Nc2ccc(Cl)cc2)c(O)c(C(C)(C)C)c1 (stereo not drawn) | 78.9

tested on: MDA-MB-231; test: Cytotoxicity against human MDA-MB-231 cells assessed as cell death at 10 uM after 48 hrs by MTT assay relative to control; format: functional; conditions: not given

Row | Compound | Activity [%]
56 | CCOC(=O)C1=C(C)NC(=O)NC1c1cc(/C=N/NC(=O)Nc2ccc(F)cc2)c(O)c(C(C)(C)C)c1 (stereo not drawn) | 43.7
57 | CCOC(=O)C1=C(C)NC(=S)NC1c1cc(/C=N/NC(=S)Nc2ccc(C)cc2)c(O)c(C(C)(C)C)c1 (stereo not drawn) | 3.3
58 | CCOC(=O)C1=C(C)NC(=O)NC1c1cc(/C=N/NC(N)=O)c(O)c(C(C)(C)C)c1 (stereo not drawn) | 18.4
59 | CCOC(=O)C1=C(C)NC(=O)NC1c1cc(C)c(O)c(C=O)c1 (stereo not drawn) | 32.5
60 | CCOC(=O)C1=C(C)NC(=S)NC1c1cc(/C=N/NC(=O)Nc2ccc(Cl)cc2)c(O)c(C(C)(C)C)c1 (stereo not drawn) | 13.8
61 | CCOC(=O)C1=C(C)NC(=O)NC1c1cc(/C=N/NC(=O)Nc2ccc(Br)cc2)c(O)c(C(C)(C)C)c1 (stereo not drawn) | 44.8
62 | CCOC(=O)C1=C(C)NC(=O)NC1c1cc(C)c(O)c(/C=N/NC(N)=S)c1 (stereo not drawn) | 10.7
63 | CCOC(=O)C1=C(C)NC(=S)NC1c1cc(/C=N/NC(=S)Nc2ccc(Cl)cc2)c(O)c(C(C)(C)C)c1 (stereo not drawn) | 17.3
64 | CCOC(=O)C1=C(C)NC(=O)NC1c1cc(/C=N/NC(=S)Nc2ccc(Cl)cc2)c(O)c(C(C)(C)C)c1 (stereo not drawn) | 83.6

tested on: HCT-116; test: Cytotoxicity against human HCT116 cells assessed as cell death at 10 uM after 48 hrs by MTT assay relative to control; format: functional; conditions: not given

Row | Compound | Activity [%]
65 | CCOC(=O)C1=C(C)NC(=O)NC1c1cc(/C=N/NC(=O)Nc2ccc(F)cc2)c(O)c(C(C)(C)C)c1 (stereo not drawn) | 17.5
66 | CCOC(=O)C1=C(C)NC(=S)NC1c1cc(/C=N/NC(=S)Nc2ccc(C)cc2)c(O)c(C(C)(C)C)c1 (stereo not drawn) | 50.5
67 | CCOC(=O)C1=C(C)NC(=O)NC1c1cc(/C=N/NC(N)=O)c(O)c(C(C)(C)C)c1 (stereo not drawn) | 2.6
68 | CCOC(=O)C1=C(C)NC(=O)NC1c1cc(C)c(O)c(C=O)c1 (stereo not drawn) | 5.7
69 | CCOC(=O)C1=C(C)NC(=S)NC1c1cc(/C=N/NC(=O)Nc2ccc(Cl)cc2)c(O)c(C(C)(C)C)c1 (stereo not drawn) | 63.3
70 | CCOC(=O)C1=C(C)NC(=O)NC1c1cc(/C=N/NC(=O)Nc2ccc(Br)cc2)c(O)c(C(C)(C)C)c1 (stereo not drawn) | 57.2
71 | CCOC(=O)C1=C(C)NC(=O)NC1c1cc(C)c(O)c(/C=N/NC(N)=S)c1 (stereo not drawn) | 1.3
72 | CCOC(=O)C1=C(C)NC(=S)NC1c1cc(/C=N/NC(=S)Nc2ccc(Cl)cc2)c(O)c(C(C)(C)C)c1 (stereo not drawn) | 57.8
73 | CCOC(=O)C1=C(C)NC(=O)NC1c1cc(/C=N/NC(=S)Nc2ccc(Cl)cc2)c(O)c(C(C)(C)C)c1 (stereo not drawn) | 82.5
